Assay results as given in patent publication US20250215012A1, “IKZF2 DEGRADERS AND USES THEREOF” (REGENTS OF THE UNIVERSITY OF MICHIGAN, priority 2022, published 2025).

Columns and labels:
[1] = target: GST-tagged wild-type human CRBN protein (Homo sapiens (Human), UniProt Q96SW2); experiment: Cereblon Binding Assay (Cisbio Cereblon Binding Kit, TR-FRET); settings: about 3 hours at room temperature
Method: (§1) The binding to cereblon (CRBN) is determined using the Cereblon Binding Kit (Cisbio, #64BDCRBNPEG) following the manufacturer's instruction. Briefly, serially diluted compounds are incubated with GST-tagged wild-type human CRBN protein, XL665-labelled Thalidomide and Europium Cryptate labelled GST antibody.
as §1, with “(CRBN) was” for “(CRBN) is”, “compounds were” for “compounds are”, “GST antibody at room temperature for about 3 hours.” for “GST antibody.”

[2] = target: IKZF2 (Homo sapiens (Human), UniProt Q96SW2+Q9UKS7); experiment: IKZF2 HiBiT Assay (Jurkat-IKZF2-HiBiT cell line); assay type: cell-based; settings: Jurkat-IKZF2-HiBiT cells, 24 hours; for DC50: read-out: HiBit assay degradation analysis DC50; for Dmax: read-out: HiBit assay degradation analysis Dmax
Sequence of IKZF2 (Q9UKS7 whole entry): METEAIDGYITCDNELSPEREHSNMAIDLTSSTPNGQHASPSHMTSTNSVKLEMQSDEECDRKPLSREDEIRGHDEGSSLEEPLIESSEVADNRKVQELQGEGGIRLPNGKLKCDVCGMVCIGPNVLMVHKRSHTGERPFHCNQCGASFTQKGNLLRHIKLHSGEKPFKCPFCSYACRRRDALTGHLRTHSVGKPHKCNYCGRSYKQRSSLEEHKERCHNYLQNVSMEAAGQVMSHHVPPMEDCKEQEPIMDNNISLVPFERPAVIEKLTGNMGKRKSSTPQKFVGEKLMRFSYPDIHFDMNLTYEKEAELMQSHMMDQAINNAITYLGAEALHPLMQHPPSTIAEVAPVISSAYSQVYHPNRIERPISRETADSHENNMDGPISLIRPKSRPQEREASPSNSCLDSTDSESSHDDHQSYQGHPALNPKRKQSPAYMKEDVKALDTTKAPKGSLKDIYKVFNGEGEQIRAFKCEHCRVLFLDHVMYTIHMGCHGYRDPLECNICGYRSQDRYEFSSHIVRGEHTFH
Sequence of IKZF2 (Q96SW2 whole entry): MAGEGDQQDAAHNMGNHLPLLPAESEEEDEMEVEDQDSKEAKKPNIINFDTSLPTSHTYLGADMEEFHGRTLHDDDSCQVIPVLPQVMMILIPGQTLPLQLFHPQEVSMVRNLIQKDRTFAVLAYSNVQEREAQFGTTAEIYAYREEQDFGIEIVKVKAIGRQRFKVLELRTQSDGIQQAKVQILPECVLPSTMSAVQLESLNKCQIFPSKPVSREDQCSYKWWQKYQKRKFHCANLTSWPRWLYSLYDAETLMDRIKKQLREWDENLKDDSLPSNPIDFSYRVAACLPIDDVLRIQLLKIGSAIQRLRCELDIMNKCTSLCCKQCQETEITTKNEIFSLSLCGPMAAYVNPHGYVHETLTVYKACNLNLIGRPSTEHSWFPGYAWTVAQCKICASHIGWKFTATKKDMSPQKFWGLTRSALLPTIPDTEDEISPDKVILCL
Sequence of IKZF2 (Q16531 whole entry partner): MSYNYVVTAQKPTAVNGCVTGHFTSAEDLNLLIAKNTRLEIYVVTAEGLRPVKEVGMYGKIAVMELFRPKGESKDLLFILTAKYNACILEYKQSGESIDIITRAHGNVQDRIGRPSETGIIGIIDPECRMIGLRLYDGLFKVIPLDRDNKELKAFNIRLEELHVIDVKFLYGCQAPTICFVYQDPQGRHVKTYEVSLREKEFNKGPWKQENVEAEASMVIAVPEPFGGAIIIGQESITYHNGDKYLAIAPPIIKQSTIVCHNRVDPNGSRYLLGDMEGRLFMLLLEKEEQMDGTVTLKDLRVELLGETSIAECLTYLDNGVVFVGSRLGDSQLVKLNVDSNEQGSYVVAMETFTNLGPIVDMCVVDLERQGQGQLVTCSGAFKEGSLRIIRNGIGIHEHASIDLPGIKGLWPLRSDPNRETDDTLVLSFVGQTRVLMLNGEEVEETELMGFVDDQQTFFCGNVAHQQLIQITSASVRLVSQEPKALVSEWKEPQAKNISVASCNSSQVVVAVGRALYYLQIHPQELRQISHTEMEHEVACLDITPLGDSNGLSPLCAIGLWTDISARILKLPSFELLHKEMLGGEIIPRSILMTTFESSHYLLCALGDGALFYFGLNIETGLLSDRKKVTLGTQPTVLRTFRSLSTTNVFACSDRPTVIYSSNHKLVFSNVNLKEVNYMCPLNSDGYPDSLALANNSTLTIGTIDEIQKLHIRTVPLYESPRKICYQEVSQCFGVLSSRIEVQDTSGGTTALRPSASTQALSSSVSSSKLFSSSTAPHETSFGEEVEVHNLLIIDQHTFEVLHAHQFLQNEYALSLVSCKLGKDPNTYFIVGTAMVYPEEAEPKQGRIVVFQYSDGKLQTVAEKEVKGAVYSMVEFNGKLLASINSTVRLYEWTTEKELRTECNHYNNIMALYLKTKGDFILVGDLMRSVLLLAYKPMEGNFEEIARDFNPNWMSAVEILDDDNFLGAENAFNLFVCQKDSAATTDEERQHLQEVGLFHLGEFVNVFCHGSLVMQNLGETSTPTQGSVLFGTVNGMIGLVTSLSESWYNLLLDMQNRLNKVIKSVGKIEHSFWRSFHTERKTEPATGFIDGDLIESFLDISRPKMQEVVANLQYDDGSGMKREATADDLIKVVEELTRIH
How it was run: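 IKZF2 degradation was assessed as HiBiT luminescence in Jurkat-IKZF2-HiBiT cells, using lytic detection after 24 h of compound treatment at 37 °C, 5% CO2.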

Sequence of GST-tagged wild-type human CRBN protein (Q96SW2 whole entry): as the sequence (Q96SW2 whole entry) above

Compound | IC50 [1] | DC50 [2] | Dmax [2]
Cn1cc(-c2cccc(CN3CCC4(CC3)COc3c4ccc4c3CN([C@H]3CCC(=O)NC3=O)C4=O)c2)cn1 [Compound A170, (S)-3-(1′-(3-(1-methyl-1H-pyrazol-4-yl)benzyl)-6-oxo-6,8-dihydro-2H,7H-spiro[furo[2,3-e]isoindole-3,4′-piperidin]-7-yl)piperidine-2,6-dione] | 100 to 1000 nM | < 50 nM | 60 to 80%
Cc1cc(C)cc(CN2CCC3(CC2)COc2c3ccc3c2CN(C2CCC(=O)NC2=O)C3=O)c1 (stereo not drawn) [Compound A31, 3-(1′-(3,5-dimethylbenzyl)-6-oxo-6,8-dihydro-2H,7H-spiro[furo[2,3-e]isoindole-3,4′-piperidin]-7-yl)piperidine-2,6-dione] | 100 to 1000 nM | 200 to 500 nM | 60 to 80%
O=C1CCC(N2Cc3c(ccc4c3OCC43CCN(Cc4ccc5cc[nH]c5c4)CC3)C2=O)C(=O)N1 (stereo not drawn) [Compound A129, 3-(1′-((1H-indol-6-yl)methyl)-6-oxo-6,8-dihydro-2H,7H-spiro[furo[2,3-e]isoindole-3,4′-piperidin]-7-yl)piperidine-2,6-dione] | 10 to 100 nM | < 50 nM | 60 to 80%
O=C1CCC(N2Cc3c(ccc4c3OCC43CCN(Cc4ccc(C(F)F)cc4)CC3)C2=O)C(=O)N1 (stereo not drawn) [Compound A3, 3-(1′-(4-(difluoromethyl)benzyl)-6-oxo-6,8-dihydro-2H,7H-spiro[furo[2,3-e]isoindole-3,4′-piperidin]-7-yl)piperidine-2,6-dione] | 10 to 100 nM | > 500 nM | 40 to 60%
O=C1CCC(N2Cc3c(ccc4c3OCC43CCN(Cc4cccc(-c5cccnc5)c4)CC3)C2=O)C(=O)N1 (stereo not drawn) [Compound A132, 3-(6-oxo-1′-(3-(pyridin-3-yl)benzyl)-6,8-dihydro-2H,7H-spiro[furo[2,3-e]isoindole-3,4′-piperidin]-7-yl)piperidine-2,6-dione] | 100 to 1000 nM | < 50 nM | 60 to 80%
O=C1CCC(N2Cc3c(ccc4c3OCC43CCN(Cc4cccc(-c5cnco5)c4)CC3)C2=O)C(=O)N1 (stereo not drawn) [Compound A125, 3-(1′-(3-(oxazol-5-yl)benzyl)-6-oxo-6,8-dihydro-2H,7H-spiro[furo[2,3-e]isoindole-3,4′-piperidin]-7-yl)piperidine-2,6-dione] | 100 to 1000 nM | < 50 nM | 60 to 80%
O=C1CCC(N2Cc3c(ccc4c3OCC43CCN(Cc4cccc(F)c4)CC3)C2=O)C(=O)N1 (stereo not drawn) [Compound A29, 3-(1′-(3-fluorobenzyl)-6-oxo-6,8-dihydro-2H,7H-spiro[furo[2,3-e]isoindole-3,4′-piperidin]-7-yl)piperidine-2,6-dione] | > 1000 nM | > 500 nM | 40 to 60%
O=C1CCC(N2Cc3c(ccc4c3OCC43CCN(Cc4ccc5cn[nH]c5c4)CC3)C2=O)C(=O)N1 (stereo not drawn) [Compound A56, 3-(1′-((1H-indazol-6-yl)methyl)-6-oxo-6,8-dihydro-2H,7H-spiro[furo[2,3-e]isoindole-3,4′-piperidin]-7-yl)piperidine-2,6-dione] | 100 to 1000 nM | < 50 nM | 60 to 80%
O=C1CCC(N2Cc3c(ccc4c3OCC43CCN(Cc4cccc(Cn5cccn5)c4)CC3)C2=O)C(=O)N1 (stereo not drawn) [Compound A126, 3-(1′-(3-((1H-pyrazol-1-yl)methyl)benzyl)-6-oxo-6,8-dihydro-2H,7H-spiro[furo[2,3-e]isoindole-3,4′-piperidin]-7-yl)piperidine-2,6-dione] | 100 to 1000 nM | 200 to 500 nM | 40 to 60%
O=C1CCC(N2Cc3c(ccc4c3OCC43CCN(Cc4cccc(-c5ccncc5)c4)CC3)C2=O)C(=O)N1 (stereo not drawn) [Compound A133, 3-(6-oxo-1′-(3-(pyridin-4-yl)benzyl)-6,8-dihydro-2H,7H-spiro[furo[2,3-e]isoindole-3,4′-piperidin]-7-yl)piperidine-2,6-dione] | 100 to 1000 nM | < 50 nM | 60 to 80%
